Laboratory results: patent publication US20230391796A1, “GLYCOSIDASE INHIBITORS AND USES THEREOF” (UNIVERSIDAD DE SEVILLA (US) -UNIVERSITY OF SEVILLE (US), priority 2020, published 2023)
Where a name gives a salt, the structure may show the parent alone.

Legend:
Total hHex = experiment: Inhibition of total hHex; assay type: biochemical, human; conditions: IC50 for total hHexA; NI = no inhibition detected at 200 μM
hOGA = biological target: T1, hOGA (Homo sapiens, UniProt O60502); experiment: Inhibition assay against hOGA, resorufin N-acetyl-β-D-glucosaminide fluorescence; assay type: biochemical; conditions: 0.2 nM hOGA, 25 μM substrate, pH 7.1; Morrison Ki
T1 sequence (O60502 1-916): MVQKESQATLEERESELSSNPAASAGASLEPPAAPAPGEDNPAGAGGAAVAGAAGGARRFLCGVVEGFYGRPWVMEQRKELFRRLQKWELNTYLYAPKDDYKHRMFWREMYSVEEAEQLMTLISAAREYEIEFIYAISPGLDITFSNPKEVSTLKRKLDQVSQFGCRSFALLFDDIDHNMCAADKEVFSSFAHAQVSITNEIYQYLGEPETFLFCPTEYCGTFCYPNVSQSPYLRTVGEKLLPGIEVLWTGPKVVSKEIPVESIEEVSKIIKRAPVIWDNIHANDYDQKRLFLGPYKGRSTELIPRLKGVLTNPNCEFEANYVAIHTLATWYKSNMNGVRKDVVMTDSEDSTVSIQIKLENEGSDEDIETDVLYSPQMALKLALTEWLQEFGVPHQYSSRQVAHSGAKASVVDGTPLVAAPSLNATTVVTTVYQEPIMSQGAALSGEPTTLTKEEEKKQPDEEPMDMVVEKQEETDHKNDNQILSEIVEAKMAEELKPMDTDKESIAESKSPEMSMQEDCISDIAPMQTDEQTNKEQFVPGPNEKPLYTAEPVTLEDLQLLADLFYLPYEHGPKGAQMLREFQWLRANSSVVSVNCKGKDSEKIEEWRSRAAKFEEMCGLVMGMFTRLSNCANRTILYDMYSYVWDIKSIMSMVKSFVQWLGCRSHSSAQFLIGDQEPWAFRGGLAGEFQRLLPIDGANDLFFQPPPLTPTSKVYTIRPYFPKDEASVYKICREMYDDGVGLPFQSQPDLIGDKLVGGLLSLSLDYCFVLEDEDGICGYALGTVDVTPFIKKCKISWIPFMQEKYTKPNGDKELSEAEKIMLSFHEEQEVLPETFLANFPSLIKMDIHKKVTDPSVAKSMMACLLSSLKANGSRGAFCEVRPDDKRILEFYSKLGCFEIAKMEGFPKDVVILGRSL
Procedure: Inhibition Assays Against hOGA
Km=25 μM was measured with these conditions. Inhibition assays were run at 0.2 nM [hOGA] in the same buffer, in the presence or absence of various concentrations of inhibitors and at a fixed substrate concentration of 25 μM and 1% DMSO. First, inhibitor was serially diluted to the desired range of concentrations in 2% DMSO buffer. Next, 50 μL of inhibitor solutions at various concentrations in 2% DMSO Buffer was added to 50 μL of 0.8 nM enzyme and allowed to incubate at 25° C. for 5 minutes. 100 uL of 50 μM and 1% DMSO substrate was then added and reaction mixture was immediately mixed and aliquoted in 45 μL triplicates to a CORNING 384 well black plate. Fluorescence signal was measured continuously for 20 minutes at 37° C. in a BioTek Neo 2 Plate reader set at excitation and emission wavelengths of 572 and 610 nm, respectively. Max reaction rates for all inhibitor concentrations were calculated within Gen5 BioTek reader software. % Activity was subsequently calculated for each inhibitor concentration against the max reaction rate of uninhibited hOGA. GraphPad Prism 2016 was used to approximate the Morrison Ki values for each inhibitor.

| Structure (SMILES) | IC50 (Total hHex) [nM] | Ki (hOGA) [nM] |
| --- | --- | --- |
| CC(C)C(=O)N[C@H]1CN2/C(=N/Cc3ccccc3)SC[C@@H]2[C@@H](O)[C@@H]1O [Compound 16, 2-Isobutanamido-5-N,6-S-(N′-benzyliminomethylidene)-1,2-dideoxy-6-thionojirimycin Hydrochloride] | > 200000 | 888 |
| CCC(=O)N[C@H]1CN2/C(=N/Cc3cccc4ccccc34)SC[C@@H]2[C@@H](O)[C@@H]1O [Compound 14, 2-Propionamido-5-N,6-S-(N′-1-naphthylmethyliminomethylidene)-1,2-dideoxy-6-thionojirimycin hydrochloride] | > 200000 | 0.701 |
| CCCNC(=S)N[C@H]1CN2/C(=N/Cc3ccccc3)SC[C@@H]2[C@@H](O)[C@@H]1O [Compound 19, 2-Propylthioureido-5-N,6-S-(N′-benzyliminomethylidene)-1,2-dideoxy-6-thionojirimycin] | > 200000 | 762 |
| CCNC(=S)N[C@H]1CN2/C(=N/Cc3ccccc3)SC[C@@H]2[C@@H](O)[C@@H]1O [Compound 18, 2-Ethylthioureido-5-N,6-S-(N′-benzyliminomethylidene)-1,2-dideoxy-6-thionojirimycin] | > 200000 | 1060 |
| CCC(=O)N[C@H]1CN2/C(=N/Cc3ccc4[nH]ccc4c3)SC[C@@H]2[C@@H](O)[C@@H]1O [Compound 15, 2-Propionamido-5-N,6-S-(N′-5-indolylmethyliminomethylidene)-1,2-dideoxy-6-thionojirimycin hydrochloride] | > 200000 | 0.657 |
| CCC(=O)N[C@H]1CN2/C(=N/Cc3ccccc3)SC[C@@H]2[C@@H](O)[C@@H]1O [Compound 13, 2-Propanamido-5-N,6-S-(N′-benzyliminomethylidene)-1,2-dideoxy-6-thionojirimycin Hydrochloride] | > 200000 | 7.97 |
| CCCC(=O)N[C@H]1CN2/C(=N/Cc3ccccc3)SC[C@@H]2[C@@H](O)[C@@H]1O [Compound 17, 2-Butanamido-5-N,6-S-(N′-benzyliminomethylidene)-1,2-dideoxy-6-thionojirimycin] | > 200000 | 337 |
